“And” between values parts separate entries of the source, which are not always exact repeats. Equal values may be shown once. Read-outs that look alike come from different tables or passages of the source.

Experiment [1] addresses T1, BChE (from bovine serum) (Bos taurus, UniProt P32749).
T1 construct: purchased Sigma-Aldrich
The experiment can be described thus: BChE inhibitory activity (Ellman method). To be noted: for IC50: average from three independent experiments ± SEM; for selectivity against BChE: conclusions. It is filed as biochemical.

Experiment [2] deals with AChE (from Electrophorus electricus) (Electrophorus electricus, UniProt O42275).
The mark [3] stands for this setting: Table 2, THQ–isoxazole hybrids 6, read-out: BChE (IC50).
Setting [4] is: Table 1, THQ–isoxazoline hybrids 5, read-out: IC50 BChE.

Sequence of AChE (from Electrophorus electricus) (O42275 24-633): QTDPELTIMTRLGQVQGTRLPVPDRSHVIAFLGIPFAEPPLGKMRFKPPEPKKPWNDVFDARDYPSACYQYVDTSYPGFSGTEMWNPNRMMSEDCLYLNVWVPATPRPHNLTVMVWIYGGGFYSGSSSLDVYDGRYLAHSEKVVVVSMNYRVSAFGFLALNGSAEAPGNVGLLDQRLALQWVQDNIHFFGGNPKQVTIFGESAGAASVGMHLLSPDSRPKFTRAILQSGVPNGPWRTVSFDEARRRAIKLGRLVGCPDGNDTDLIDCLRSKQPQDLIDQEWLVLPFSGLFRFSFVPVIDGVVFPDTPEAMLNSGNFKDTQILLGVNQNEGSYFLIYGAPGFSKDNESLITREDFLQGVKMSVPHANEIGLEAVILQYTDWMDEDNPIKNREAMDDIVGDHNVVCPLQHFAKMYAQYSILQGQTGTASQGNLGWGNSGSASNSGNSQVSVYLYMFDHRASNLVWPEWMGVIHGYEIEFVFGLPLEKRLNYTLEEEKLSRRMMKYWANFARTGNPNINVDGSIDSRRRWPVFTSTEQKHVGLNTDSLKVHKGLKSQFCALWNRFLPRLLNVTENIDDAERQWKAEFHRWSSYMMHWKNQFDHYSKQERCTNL
T1 sequence (P32749 29-602): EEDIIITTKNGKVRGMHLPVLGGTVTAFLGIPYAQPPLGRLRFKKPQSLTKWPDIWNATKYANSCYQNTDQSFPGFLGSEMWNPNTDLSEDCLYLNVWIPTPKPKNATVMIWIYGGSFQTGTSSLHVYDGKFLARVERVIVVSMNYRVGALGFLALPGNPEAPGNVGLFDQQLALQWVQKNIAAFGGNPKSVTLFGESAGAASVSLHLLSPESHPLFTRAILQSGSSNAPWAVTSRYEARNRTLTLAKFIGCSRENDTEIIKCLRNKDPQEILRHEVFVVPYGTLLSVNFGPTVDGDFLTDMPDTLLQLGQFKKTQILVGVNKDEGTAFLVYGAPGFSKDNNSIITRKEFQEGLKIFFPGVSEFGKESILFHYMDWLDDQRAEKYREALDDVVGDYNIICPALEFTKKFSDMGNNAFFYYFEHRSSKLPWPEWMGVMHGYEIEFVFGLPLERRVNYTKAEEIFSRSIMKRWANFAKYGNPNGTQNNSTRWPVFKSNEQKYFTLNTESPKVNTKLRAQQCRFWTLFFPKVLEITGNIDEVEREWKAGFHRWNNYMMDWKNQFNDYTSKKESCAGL

`COc1cc(-c2cc(CN3CCC(N4CCCC4=O)c4cc(C)ccc43)on2)cc(OC)c1OC` (stereo not drawn) [6g, 3-(3,4,5-trimethoxyphenyl)-5-((6′-methyl-4′-(2′’-oxopyrrolidin-1′’-yl)-3′,4′-dihydroquinolin-1′(2′H)-yl)methyl)isoxazole]: the IC50 is 78.16 ± 0.01 µM in experiment [1] (setting [3]) and 72.94 ± 0.02 µM in experiment [2] (read-out: AChE (IC50)). Further, the SI in experiment [2] amounted to 1.07.

In the case of `COc1ccc(-c2cc(CN3CCC(N4CCCC4=O)c4ccccc43)on2)cc1` (stereo not drawn) [6b, 3-(4-methoxyphenyl)-5-((4′-(2′’-oxopyrrolidin-1′’-yl)-3′,4′-dihydroquinolin-1′(2′H)-yl)methyl)isoxazole], the values for the IC50 in experiment [1] (setting [3]) and in experiment [2] (read-out: AChE (IC50)) were 27.25 ± 0.003 µM and 42.44 ± 0.01 µM, respectively. In experiment [2], the SI is 0.64.

On to `CCc1cc(Cl)c2c(c1)C(N1CCCC1=O)CCN2Cc1cc(-c2ccc(OC)c(OC)c2)no1` (stereo not drawn) [6s, 5-((8′-chloro-6′-ethyl-4′-(2′’-oxopyrrolidin-1′’-yl)-3′,4′-dihydroquinolin-1′(2′H)-yl)methyl)-3-(3,4-dimethoxyphenyl)isoxazole], for which the results for the IC50 in experiment [1] (setting [3]) and in experiment [2] (read-out: AChE (IC50)) were 22.28 ± 0.004 µM and 26.82 ± 0.002 µM, respectively. This compound showed an SI in experiment [2] of 0.83.

On to `COc1ccc(C2=NOC(CN3CCC(N4CCCC4=O)c4cc(Cl)ccc43)C2)cc1` (stereo not drawn) [5n, 5-[(6-chloro-4-(2′-oxopyrrolidin-1′-yl)-3,4-dihydroquinolin-1(2H)-yl)-methyl]-3-(4-methoxyphenyl)-4,5-dihydroisoxazole], for which the IC50 in experiment [1] (setting [4]) worked out at 22 ± 0.02 µM. For the same compound, in experiment [2], the SI was found to be 5.19 and the “selectivity for inhibiting AChE” value is given as “significant selectivity”.

With `O=C1CCCN1C1CCN(Cc2cc(-c3ccccc3)no2)c2ccc(Cl)cc21` (stereo not drawn) [6l, 5-((6′-chloro-4′-(2′’-oxopyrrolidin-1′’-yl)-3′,4′-dihydroquinolin-1′(2′H)-yl)methyl)-3-phenylisoxazole], the IC50 in experiment [1] (setting [3]) is 14.11 ± 0.02 µM; in experiment [2] (read-out: AChE (IC50)) it was 92.01 ± 0.05 µM. In addition, the “selectivity against BChE” value in experiment [1] was “more selective”. This compound also returned an SI in experiment [2] of 0.15.

Regarding `O=C1CCCN1C1CCN(CC2CC(c3ccccc3)=NO2)c2ccc(Cl)cc21` (stereo not drawn) [5m, 5-[(6-chloro-4-(2′-oxopyrrolidin-1′-yl)-3,4-dihydroquinolin-1(2H)-yl)-methyl]-3-phenyl-4,5-dihydroisoxazole], the IC50 in experiment [1] (setting [4]) came out at 19.09 ± 0.01 µM. In addition, in experiment [2], the SI stood at 0.63 and the “selectivity for inhibiting AChE” value is reported as “significant selectivity”. In experiment [2] (read-out: IC50 AChE), the half-maximal inhibitory concentration (IC50) was determined as 30.1 ± 0.01 µM.

In the case of `COc1ccc(-c2cc(CN3CCC(N4CCCC4=O)c4cc(Br)ccc43)on2)cc1OC` (stereo not drawn) [6aa, 3-(3,4-dimethoxyphenyl)-5-((6′-bromo-4′-(2′’-oxopyrrolidin-1′’-yl)-3′,4′-dihydroquinolin-1′(2′H)-yl)methyl)isoxazole], the IC50 is < 7.18 µM and 3.97 µM in experiment [1] (setting [3]); 96.1 ± 0.01 µM in experiment [2] (read-out: AChE (IC50)). Also, the “selectivity against BChE” value in experiment [1] is “more selective”. Moreover, the “times more potent against BChE than for the AChE enzyme” value in experiment [1] (selectivity for BChE) is given as “about 24 times”. For the same compound, the SI in experiment [2] came to 0.04.

On to `O=C1CCCN1C1CCN(Cc2cc(-c3ccccc3)no2)c2ccc(Br)cc21` (stereo not drawn) [6y, 5-((6′-bromo-4′-(2′’-oxopyrrolidin-1′’-yl)-3′,4′-dihydroquinolin-1′(2′H)-yl)methyl)-3-phenylisoxazole], for which the values for the IC50 in experiment [1] (setting [3]) and in experiment [2] (read-out: AChE (IC50)) were 84.91 ± 0.01 µM and 97.84 ± 0.01 µM, respectively. The same compound showed an SI in experiment [2] of 0.87.

For `COc1cc(-c2cc(CN3CCC(N4CCCC4=O)c4cc(F)ccc43)on2)cc(OC)c1OC` (stereo not drawn) [6x, 5-((6′-fluoro-4′-(2′’-oxopyrrolidin-1′’-yl)-3′,4′-dihydroquinolin-1′(2′H)-yl)methyl)-3-(3,4,5-trimethoxyphenyl)isoxazole], the IC50 amounted to 163.12 ± 0.01 µM in experiment [1] (setting [3]) and 24.83 ± 0.003 µM in experiment [2] (read-out: AChE (IC50)). In addition, the SI in experiment [2] is 6.57.

As for `O=C1CCCN1C1CCN(Cc2cc(-c3ccccc3)no2)c2ccccc21` (stereo not drawn) [6a, 3-phenyl-5-((4′-(2′’-oxopyrrolidin-1′’-yl)-3′,4′-dihydroquinolin-1′(2′H)-yl)methyl)isoxazole], the IC50 in experiment [1] (setting [3]) is < 7.18 µM and 4.36 µM; in experiment [2] (read-out: AChE (IC50)), 104.74 ± 0.01 µM. For the same compound, the “selectivity against BChE” value in experiment [1] is “more selective”. This compound also returned an SI in experiment [2] of 0.04.

For `COc1ccc(-c2cc(CN3CCC(N4CCCC4=O)c4cc(F)ccc43)on2)cc1` (stereo not drawn) [6v, 5-((6′-fluoro-4′-(2′’-oxopyrrolidin-1′’-yl)-3′,4′-dihydroquinolin-1′(2′H)-yl)methyl)-3-(4-methoxyphenyl)isoxazole], the IC50 in experiment [1] (setting [3]) is 83.75 ± 0.01 µM; in experiment [2] (read-out: AChE (IC50)), 42.48 ± 0.004 µM. The SI in experiment [2] stood at 1.97.

As for `COc1ccc(-c2cc(CN3CCC(N4CCCC4=O)c4cc(Br)ccc43)on2)cc1` (stereo not drawn) [6z, 3-(4-methoxyphenyl)-5-((6′-bromo-4′-(2′’-oxopyrrolidin-1′’-yl)-3′,4′-dihydroquinolin-1′(2′H)-yl)methyl)isoxazole], the IC50 in experiment [1] (setting [3]) is < 7.18 µM and 5.81 µM; in experiment [2] (read-out: AChE (IC50)), 12.19 ± 0.005 µM. Besides, the SI in experiment [2] is listed as 0.48.

Take `COc1ccc(C2=NOC(CN3CCC(N4CCCC4=O)c4cc(OC)ccc43)C2)cc1` (stereo not drawn) [5j, 3-(4-methoxyphenyl)-5-[(6-methoxy-4-(2′-oxopyrrolidin-1′-yl)-3,4-dihydroquinolin-1(2H)-yl)-methyl]-4,5-dihydroisoxazole]: the results for the IC50 in experiment [1] (setting [4]) and in experiment [2] (read-out: IC50 AChE) were 144.71 ± 0.004 µM and 93.66 ± 0.006 µM, respectively. Further, the SI in experiment [2] is 1.55.

Consider `COc1cc(C2=NOC(CN3CCC(N4CCCC4=O)c4cc(Cl)ccc43)C2)cc(OC)c1OC` (stereo not drawn) [5p, 5-[(6-chloro-4-(2′-oxopyrrolidin-1′-yl)-3,4-dihydroquinolin-1(2H)-yl)-methyl]-3-(3,4,5-trimethoxyphenyl)-4,5-dihydroisoxazole], for which the IC50 in experiment [1] (setting [4]) turned out to be 106 ± 2 µM; in experiment [2] (read-out: IC50 AChE) it was 12.28 ± 0.01 µM. For the same compound, the SI in experiment [2] was determined as 8.61.

Consider `O=C1CCCN1C1CCN(Cc2cc(-c3ccccc3)no2)c2ccc(F)cc21` (stereo not drawn) [6u, 5-((6′-fluor-4′-(2′’-oxopyrrolidin-1′’-yl)-3′,4′-dihydroquinolin-1′(2′H)-yl)methyl)-3-phenylisoxazole], for which the values for the IC50 in experiment [1] (setting [3]) and in experiment [2] (read-out: AChE (IC50)) were 17.74 ± 0.01 µM and 116.63 ± 0.01 µM, respectively. Further, the “selectivity against BChE” value in experiment [1] is recorded as “more selective”. For the same compound, in experiment [2], the SI turned out to be 0.15.

Consider `COc1ccc2c(c1)C(N1CCCC1=O)CCN2CC1CC(c2cc(OC)c(OC)c(OC)c2)=NO1` (stereo not drawn) [5l, 5-[(6-methoxy-4-(2′-oxopyrrolidin-1′-yl)-3,4-dihydroquinolin-1(2H)-yl)-methyl]-3-(3,4,5-trimethoxyphenyl)-4,5-dihydroisoxazole], for which the IC50 in experiment [1] (setting [4]) came out at 43.67 ± 0.02 µM; in experiment [2] (read-out: IC50 AChE), 109.26 ± 0.01 µM. In experiment [2], the SI came out at 0.40.

On to `COc1ccc(C2=NOC(CN3CCC(N4CCCC4=O)c4ccccc43)C2)cc1` (stereo not drawn) [5b, 3-(4-methoxyphenyl)-5-[4-((2′-oxopyrrolidin-1′-yl)-3,4-dihydroquinolin-1(2H)-yl)-methyl]-4,5-dihydroisoxazole], for which the figures for the IC50 in experiment [1] (setting [4]) and in experiment [2] (read-out: IC50 AChE) were 65.59 ± 0.006 µM and 95.14 ± 0.08 µM, respectively. The same compound gave an SI in experiment [2] of 0.69.

`COc1ccc(-c2cc(CN3CCC(N4CCCC4=O)c4cc(F)ccc43)on2)cc1OC` (stereo not drawn) [6w, 5-((6′-fluoro-4′-(2′’-oxopyrrolidin-1′’-yl)-3′,4′-dihydroquinolin-1′(2′H)-yl)methyl)-3-(3,4-dimethoxyphenyl)isoxazole]: the figures for the IC50 in experiment [1] (setting [3]) and in experiment [2] (read-out: AChE (IC50)) were 46.92 ± 0.01 µM and 16.83 ± 0.002 µM, respectively. Moreover, in experiment [2], the SI was 2.79.

The record behind these values is publication PMC6981637, “Tetrahydroquinoline-Isoxazole/Isoxazoline Hybrid Compounds as Potential Cholinesterases Inhibitors: Synthesis, Enzyme Inhibition Assays, and Molecular Modeling Studies” (International Journal of Molecular Sciences, 2019).
